Measurements from article PMC5218480 (PLoS ONE, 2017).

Tested on: MV-4-11 cells
Test: Gene expression microarray analysis (Affymetrix PrimeView) and GSEA
Format: cell-based, human
Set-up: RFU PODN (11730768_x_at) / Fold change /veh PODN (11730768_x_at) / RFU LINC00158 (11744669_a_at) / Fold change /veh LINC00158 (11744669_a_at) / RFU DUSP10 (11751237_a_at) / Fold change /veh DUSP10 (11751237_a_at) / RFU ID3 (11757404_x_at) / Fold change /veh ID3 (11757404_x_at) / RFU PLEKHG5 (11737974_s_at) / Fold change /veh PLEKHG5 (11737974_s_at) / RFU LRRC4B (11730491_at) / Fold change /veh LRRC4B (11730491_at) / RFU GIMAP4 (11747438_a_at) / Fold change /veh GIMAP4 (11747438_a_at) / RFU KRT8 (11758183_x_at) / Fold change /veh KRT8 (11758183_x_at) / RFU CNN1 (11734310_a_at) / Fold change /veh CNN1 (11734310_a_at) / RFU VPS37D (11726825_at) / Fold change /veh VPS37D (11726825_at) / RFU C10orf10 (11716522_x_at) / Fold change /veh C10orf10 (11716522_x_at) / RFU KIR2DL2 /// KIR2DL4 /// KIR2DL5A /// KIR2DL5B /// KIR2DS1 /// KIR2DS2 /// KIR2DS3 /// KIR2DS4 /// KIR3DL3 /// KIR3DL3 /// KIR3DS1 (11738374_at) / Fold change /veh KIR2DL2 /// KIR2DL4 /// KIR2DL5A /// KIR2DL5B /// KIR2DS1 /// KIR2DS2 /// KIR2DS3 /// KIR2DS4 /// KIR3DL3 /// KIR3DL3 /// KIR3DS1 (11738374_at) / RFU C1QL1 (11718748_at) / Fold change /veh C1QL1 (11718748_at) / RFU TMPRSS4 (11747572_a_at) / Fold change /veh TMPRSS4 (11747572_a_at) / RFU HAMP (11756126_x_at) / Fold change /veh HAMP (11756126_x_at) / RFU RNFT2 (11725882_a_at) / Fold change /veh RNFT2 (11725882_a_at) / RFU NR4A2 (11747474_a_at) / Fold change /veh NR4A2 (11747474_a_at) / RFU ABCC12 (11746883_a_at) / Fold change /veh ABCC12 (11746883_a_at) / RFU TMEM136 (11760407_x_at) / Fold change /veh TMEM136 (11760407_x_at) / RFU CLDN22 /// WWC2 (11732394_at) / Fold change /veh CLDN22 /// WWC2 (11732394_at) / RFU HLA-DPB1 (11760878_x_at) / Fold change /veh HLA-DPB1 (11760878_x_at) / RFU SPINT1 (11716480_a_at) / Fold change /veh SPINT1 (11716480_a_at) / RFU GAP43 (11754022_s_at) / Fold change /veh GAP43 (11754022_s_at) / RFU A4GNT (11735810_at) / Fold change /veh A4GNT (11735810_at) / RFU PRB3 (11715151_x_at) / Fold change /veh PRB3 (11715151_x_at) / RFU TUBB4B (11761932_at) / Fold change /veh TUBB4B (11761932_at) / RFU CAPN14 (11732068_a_at) / Fold change /veh CAPN14 (11732068_a_at) / RFU TMCC2 (11721928_a_at) / Fold change /veh TMCC2 (11721928_a_at) / RFU IRGQ (11745062_a_at) / Fold change /veh IRGQ (11745062_a_at) / RFU FAM174B (11720279_a_at) / Fold change /veh FAM174B (11720279_a_at) / RFU TMPRSS4 (11748680_a_at) / Fold change /veh TMPRSS4 (11748680_a_at) / RFU FAM212B (11763350_a_at) / Fold change /veh FAM212B (11763350_a_at) / RFU PLEKHG5 (11743358_a_at) / Fold change /veh PLEKHG5 (11743358_a_at) / RFU ZSCAN30 (11745921_a_at) / Fold change /veh ZSCAN30 (11745921_a_at) / RFU CMKLR1 (11741424_a_at) / Fold change /veh CMKLR1 (11741424_a_at) / RFU LOC101060620 /// MAPK8IP1 (11723275_at) / Fold change /veh LOC101060620 /// MAPK8IP1 (11723275_at) / RFU SPTSSB (11747773_x_at) / Fold change /veh SPTSSB (11747773_x_at) / RFU PRSS12 (11739890_at) / Fold change /veh PRSS12 (11739890_at) / RFU BIN1 (11741810_x_at) / Fold change /veh BIN1 (11741810_x_at) / RFU WNT11 (11732464_a_at) / Fold change /veh WNT11 (11732464_a_at) / RFU C10orf10 (11716521_a_at) / Fold change /veh C10orf10 (11716521_a_at) / RFU C5orf56 (11738089_at) / Fold change /veh C5orf56 (11738089_at) / RFU CYB561 (11721691_x_at) / Fold change /veh CYB561 (11721691_x_at) / RFU ANKRD19P (11752326_a_at) / Fold change /veh ANKRD19P (11752326_a_at) / RFU OR2T12 /// OR2T33 /// OR2T8 (11738714_s_at) / Fold change /veh OR2T12 /// OR2T33 /// OR2T8 (11738714_s_at) / RFU VCAN (11748164_a_at) / Fold change /veh VCAN (11748164_a_at) / RFU JSRP1 (11732532_at) / Fold change /veh JSRP1 (11732532_at) / RFU KRTAP10-11 (11738290_x_at) / Fold change /veh KRTAP10-11 (11738290_x_at) / RFU MYO3A (11730013_a_at) / Fold change /veh MYO3A (11730013_a_at) / RFU EBF3 (11725865_a_at) / Fold change /veh EBF3 (11725865_a_at) / RFU CAMK2N1 (11719241_x_at) / Fold change /veh CAMK2N1 (11719241_x_at) / RFU C5orf56 (11738088_a_at) / Fold change /veh C5orf56 (11738088_a_at) / RFU OLFML3 (11715873_a_at) / Fold change /veh OLFML3 (11715873_a_at) / RFU LOC100653217 /// NTM (11731650_a_at) / Fold change /veh LOC100653217 /// NTM (11731650_a_at) / RFU MAPK11 (11762145_a_at) / Fold change /veh MAPK11 (11762145_a_at) / RFU FIZ1 (11724087_x_at) / Fold change /veh FIZ1 (11724087_x_at) / RFU OASL (11726364_x_at) / Fold change /veh OASL (11726364_x_at) / RFU SOX15 (11748057_x_at) / Fold change /veh SOX15 (11748057_x_at) / RFU CD79A (11719716_a_at) / Fold change /veh CD79A (11719716_a_at) / RFU HIST1H1D (11736915_at) / Fold change /veh HIST1H1D (11736915_at) / RFU CASKIN2 (11723855_a_at) / Fold change /veh CASKIN2 (11723855_a_at) / RFU LOC730098 (11760151_x_at) / Fold change /veh LOC730098 (11760151_x_at) / RFU OR4N2 (11742367_at) / Fold change /veh OR4N2 (11742367_at) / RFU PRRT2 (11749266_a_at) / Fold change /veh PRRT2 (11749266_a_at) / RFU SNX32 (11753110_a_at) / Fold change /veh SNX32 (11753110_a_at) / RFU CDHR5 (11726645_a_at) / Fold change /veh CDHR5 (11726645_a_at) / RFU RCAN1 (11760418_a_at) / Fold change /veh RCAN1 (11760418_a_at) / RFU FAM167A (11723789_a_at) / Fold change /veh FAM167A (11723789_a_at) / RFU FAM26E (11764081_at) / Fold change /veh FAM26E (11764081_at) / RFU ISYNA1 (11749810_s_at) / Fold change /veh ISYNA1 (11749810_s_at) / RFU ACY1 (11761880_at) / Fold change /veh ACY1 (11761880_at) / RFU 11764098_at / Fold change /veh 11764098_at / RFU SAMD14 (11745864_x_at) / Fold change /veh SAMD14 (11745864_x_at) / RFU NPB (11741838_a_at) / Fold change /veh NPB (11741838_a_at) / RFU TMPRSS6 (11731388_a_at) / Fold change /veh TMPRSS6 (11731388_a_at) / RFU KRTAP10-2 (11738614_at) / Fold change /veh KRTAP10-2 (11738614_at) / RFU ARHGAP8 /// PRR5-ARHGAP8 (11727945_x_at) / Fold change /veh ARHGAP8 /// PRR5-ARHGAP8 (11727945_x_at) / RFU KRTAP5-7 /// NADSYN1 (11734609_at) / Fold change /veh KRTAP5-7 /// NADSYN1 (11734609_at) / RFU RASL12 (11751679_a_at) / Fold change /veh RASL12 (11751679_a_at) / RFU CDKN2B (11736163_a_at) / Fold change /veh CDKN2B (11736163_a_at) / RFU PRF1 (11729649_at) / Fold change /veh PRF1 (11729649_at) / RFU, ZNF638 /// ZNF638-IT1 / Fold change vs veh, ZNF638 /// ZNF638-IT1 / RFU, PANK3 / Fold change vs veh, PANK3 / RFU, SH3YL1 / Fold change vs veh, SH3YL1 / RFU, ZEB2 / Fold change vs veh, ZEB2 / RFU, NRIP1 / Fold change vs veh, NRIP1 / RFU, PTTG1IP / Fold change vs veh, PTTG1IP / RFU, CAPN2 / Fold change vs veh, CAPN2 / RFU, MED14 / Fold change vs veh, MED14 / RFU, SNORA58 / Fold change vs veh, SNORA58 / RFU, C1orf63 / Fold change vs veh, C1orf63 / RFU, LRRFIP1 / Fold change vs veh, LRRFIP1 / RFU, NDUFAF7 / Fold change vs veh, NDUFAF7 / RFU, SLC12A2 / Fold change vs veh, SLC12A2 / RFU, IBTK / Fold change vs veh, IBTK / RFU, ESF1 / Fold change vs veh, ESF1 / Fold change vs veh, TMEM50B / RFU, TAOK1 / Fold change vs veh, TAOK1 / RFU, ACBD3 / Fold change vs veh, ACBD3 / RFU, TMA16 / Fold change vs veh, TMA16 / RFU, RWDD3 / Fold change vs veh, RWDD3 / RFU, BCAT1 / Fold change vs veh, BCAT1 / RFU, EDEM3 / Fold change vs veh, EDEM3 / RFU, TMEM33 / Fold change vs veh, TMEM33 / RFU, WDR75 / Fold change vs veh, WDR75 / RFU, AHCTF1 / Fold change vs veh, AHCTF1 / RFU, TFRC / Fold change vs veh, TFRC / RFU, ZDHHC17 / Fold change vs veh, ZDHHC17 / RFU, NOM1 / Fold change vs veh, NOM1 / RFU, ARL8B / Fold change vs veh, ARL8B / RFU, ZBTB11 / Fold change vs veh, ZBTB11 / RFU, TAMM41 / Fold change vs veh, TAMM41 / RFU, KIAA1704 /// LOC100996395 / Fold change vs veh, KIAA1704 /// LOC100996395 / RFU, ING1 / Fold change vs veh, ING1 / RFU, TRMT61B / Fold change vs veh, TRMT61B / RFU, FUBP3 / Fold change vs veh, FUBP3 / RFU, TP53 / Fold change vs veh, TP53 / RFU, TNKS2 / Fold change vs veh, TNKS2 / RFU, ZFP14 / Fold change vs veh, ZFP14 / RFU, ACTR2 / Fold change vs veh, ACTR2 / RFU, PPP3R1 / Fold change vs veh, PPP3R1 / RFU, PIK3R1 / Fold change vs veh, PIK3R1 / RFU, HNRNPA1 / Fold change vs veh, HNRNPA1 / RFU, RNF170 / Fold change vs veh, RNF170 / RFU, ZNF28 / Fold change vs veh, ZNF28 / RFU, RNGTT / Fold change vs veh, RNGTT / RFU, OGT / Fold change vs veh, OGT / RFU, BRD1 / Fold change vs veh, BRD1 / RFU, MARS / Fold change vs veh, MARS / RFU, ZNF655 / Fold change vs veh, ZNF655 / RFU, FAHD1 / Fold change vs veh, FAHD1 / RFU, BDP1 / Fold change vs veh, BDP1 / RFU, LRRCC1 / Fold change vs veh, LRRCC1 / RFU, ARID1A / Fold change vs veh, ARID1A / RFU, ZNF146 / Fold change vs veh, ZNF146 / RFU, ZNF330 / Fold change vs veh, ZNF330 / RFU, GPN3 / Fold change vs veh, GPN3 / RFU, C9orf123 / Fold change vs veh, C9orf123 / RFU, N4BP2L2 / Fold change vs veh, N4BP2L2 / RFU, ARFIP1 / Fold change vs veh, ARFIP1 / RFU, FAM179B / Fold change vs veh, FAM179B / RFU, BCL10 / Fold change vs veh, BCL10 / RFU, UHRF1BP1L / Fold change vs veh, UHRF1BP1L / RFU, BET1 / Fold change vs veh, BET1 / RFU, CNOT2 / Fold change vs veh, CNOT2 / RFU, ZNF268 / Fold change vs veh, ZNF268 / Fold change vs veh, ZNF507 / RFU, DGCR2 / Fold change vs veh, DGCR2 / RFU, WDSUB1 / Fold change vs veh, WDSUB1 / Fold change vs veh, HSP90B1 /// MIR3652 / RFU, ADSS / Fold change vs veh, ADSS / RFU, GK / Fold change vs veh, GK / RFU, ZNF148 / Fold change vs veh, ZNF148 / RFU, TAF9 / Fold change vs veh, TAF9 / RFU, SLC1A5 / Fold change vs veh, SLC1A5 / RFU, SLMO2 / Fold change vs veh, SLMO2 / RFU, ABCC4 / Fold change vs veh, ABCC4 / RFU, LOC101060439 /// RAP1B / Fold change vs veh, LOC101060439 /// RAP1B / RFU, RFX7 / Fold change vs veh, RFX7 / RFU, GTPBP10 / Fold change vs veh, GTPBP10 / RFU, CNEP1R1 / Fold change vs veh, CNEP1R1 / RFU, BIVM-ERCC5 /// ERCC5 / Fold change vs veh, BIVM-ERCC5 /// ERCC5 / RFU, ILF3 / Fold change vs veh, ILF3 / RFU 11762660_at / Fold change /veh 11762660_at / RFU VCAN (11757783_s_at) / Fold change /veh VCAN (11757783_s_at) / RFU DDX43 (11728927_at) / Fold change /veh DDX43 (11728927_at) / RFU KRT8 (11758188_x_at) / Fold change /veh KRT8 (11758188_x_at) / RFU NKD1 (11759106_at) / Fold change /veh NKD1 (11759106_at) / RFU SRD5A1 (11742802_a_at) / Fold change /veh SRD5A1 (11742802_a_at) / RFU TPSAB1 /// TPSB2 (11721975_s_at) / Fold change /veh TPSAB1 /// TPSB2 (11721975_s_at) / RFU GSTM3 (11746129_a_at) / Fold change /veh GSTM3 (11746129_a_at) / RFU IL23R (11737362_x_at) / Fold change /veh IL23R (11737362_x_at) / RFU TMEM51 (11727254_a_at) / Fold change /veh TMEM51 (11727254_a_at) / RFU PIWIL2 (11732686_x_at) / Fold change /veh PIWIL2 (11732686_x_at) / RFU ORM1 (11744905_x_at) / Fold change /veh ORM1 (11744905_x_at) / RFU CCDC152 (11743942_at) / Fold change /veh CCDC152 (11743942_at) / RFU ECM1 (11717891_a_at) / Fold change /veh ECM1 (11717891_a_at) / RFU IL23R (11748794_a_at) / Fold change /veh IL23R (11748794_a_at) / RFU TNFAIP8L3 (11732012_x_at) / Fold change /veh TNFAIP8L3 (11732012_x_at) / RFU MBOAT4 (11741988_at) / Fold change /veh MBOAT4 (11741988_at) / RFU 11764193_at / Fold change /veh 11764193_at / RFU TMEM53 (11763286_at) / Fold change /veh TMEM53 (11763286_at) / RFU MAGEB2 (11727129_at) / Fold change /veh MAGEB2 (11727129_at) / RFU TMEM200A (11744735_a_at) / Fold change /veh TMEM200A (11744735_a_at) / RFU CCDC152 (11751479_a_at) / Fold change /veh CCDC152 (11751479_a_at) / RFU FAM211A (11726209_a_at) / Fold change /veh FAM211A (11726209_a_at) / RFU RGS16 (11746705_a_at) / Fold change /veh RGS16 (11746705_a_at) / RFU VCAN (11755009_s_at) / Fold change /veh VCAN (11755009_s_at) / RFU RHOB (11743442_s_at) / Fold change /veh RHOB (11743442_s_at) / RFU RGS16 (11720943_a_at) / Fold change /veh RGS16 (11720943_a_at) / RFU RGS16 (11720944_at) / Fold change /veh RGS16 (11720944_at) / RFU, VPS4B / Fold change vs veh, VPS4B / RFU, CREB1 / Fold change vs veh, CREB1 / RFU, DNAJC13 / Fold change vs veh, DNAJC13 / RFU, GNAQ / Fold change vs veh, GNAQ / RFU, CDK5R1 / Fold change vs veh, CDK5R1 / RFU, ZRANB3 / Fold change vs veh, ZRANB3 / RFU, CUL4A / Fold change vs veh, CUL4A / RFU, CCNY / Fold change vs veh, CCNY / RFU, UFL1 / Fold change vs veh, UFL1 / RFU, COG3 / Fold change vs veh, COG3 / RFU, DIAPH2 / Fold change vs veh, DIAPH2 / RFU, SKA2 / Fold change vs veh, SKA2 / RFU, AFF3 / Fold change vs veh, AFF3 / RFU, LMF1 / Fold change vs veh, LMF1 / RFU, IPO11 / Fold change vs veh, IPO11 / RFU, DFFB / Fold change vs veh, DFFB / RFU, FOXP1 / Fold change vs veh, FOXP1 / RFU, CARD8 / Fold change vs veh, CARD8 / RFU, STRN3 / Fold change vs veh, STRN3 / RFU, ADK / Fold change vs veh, ADK / RFU, RASSF2 / Fold change vs veh, RASSF2 / RFU, WIPF1 / Fold change vs veh, WIPF1 / RFU, LARP1B / Fold change vs veh, LARP1B / RFU, RASA1 / Fold change vs veh, RASA1 / RFU, RB1 / Fold change vs veh, RB1 / RFU, PPFIA1 / Fold change vs veh, PPFIA1 / RFU, MAT2A / Fold change vs veh, MAT2A / RFU, CCT5 / Fold change vs veh, CCT5 / RFU, WDR92 / Fold change vs veh, WDR92 / RFU, CUX1 / Fold change vs veh, CUX1 / RFU, TTC7A / Fold change vs veh, TTC7A / RFU, TMEM135 / Fold change vs veh, TMEM135 / RFU, DEPTOR / Fold change vs veh, DEPTOR / RFU, CPM / Fold change vs veh, CPM / RFU, DNAJB6 / Fold change vs veh, DNAJB6 / RFU, CACNA2D3 / Fold change vs veh, CACNA2D3 / RFU, DTX4 / Fold change vs veh, DTX4 / RFU, TFCP2 / Fold change vs veh, TFCP2 / RFU, GMCL1 /// GMCL1P1 / Fold change vs veh, GMCL1 /// GMCL1P1 / RFU, AEBP2 / Fold change vs veh, AEBP2 / RFU, SNHG1 /// SNORD22 /// SNORD25 /// SNORD26 /// SNORD27 /// SNORD28 /// SNORD29 /// SNORD31 / Fold change vs veh, SNHG1 /// SNORD22 /// SNORD25 /// SNORD26 /// SNORD27 /// SNORD28 /// SNORD29 /// SNORD31 / Fold change (Aza/veh), C12orf56 (ProbeSet 11735607_a_at) / Fold change (ACY-1035/veh), C12orf56 (ProbeSet 11735607_a_at) / Fold change (Aza/veh), FGFR1OP (ProbeSet 11751329_s_at) / Fold change (ACY-1035/veh), FGFR1OP (ProbeSet 11751329_s_at) / Fold change (Aza/veh), VPS36 (ProbeSet 11739960_a_at) / Fold change (ACY-1035/veh), VPS36 (ProbeSet 11739960_a_at) / RFU SYPL1 (11715823_x_at) / Fold change /veh SYPL1 (11715823_x_at) / RFU IGFBP7 (11715501_s_at) / Fold change /veh IGFBP7 (11715501_s_at) / RFU REEP3 (11722064_at) / Fold change /veh REEP3 (11722064_at) / RFU IGLL1 (11728026_x_at) / Fold change /veh IGLL1 (11728026_x_at): dose or concentration left out as unconfirmed
Conditions: ProbeSet 11728314_at; LIST B

**Q.** `Nc1ccc(-c2cccs2)cc1NC(=O)c1ccc2c(c1)cc(C1CC1)n2CCN1CCOCC1` [ACY-1035] was tested. Which “Fold change vs veh, ZNF148” value did it give?
**A.** The value was 0.92.
